The record followed here is US20080262080A1, “Allergy Suppressive Agent” (KYUSHU UNIVERSITY, NATIONAL UNIVERSITY CORPORATION, priority 2004, published 2008).

The subject of one experiment is KU812 cells. The experiment in a line: A23187-induced histamine release from human basophil cell line KU812. Type of experiment: cell-based. To be noted: 25 μM of chrysin, 5 μM A23187, vs control free from chrysin. The protocol: Human basophil cell line KU812 cells (5×10^6 cells/mL) were incubated in Tyrode buffer comprising 1 mM of CaCl2, to which 25 μM of chrysin had been added, and then stimulated with A23187. Histamine released from the cells and histamine cumulated in the cells were quantified to thereby determine the histamine release rate. Comparison was made with a control system free from chrysin.
Human basophil cell line KU812 cells (5×10^5 cells/mL) were incubated in Tyrode buffer (137 mM NaCl, 2.7 mM KCl, 1.8 mM CaCl2, 1.1 mM MgCl2, 1.19 mM NaHCO3, 0.4 mM NaH2PO4, pH 7.4) comprising 25 μM of chrysin and 1 mM of CaCl2 for 20 min at 37° C. After adding 5 μM of A23187 (Sigma Chemical Co.), the incubation was continued for an additional 20 min at 37° C. […] In a sample for quantifying histamine cumulated in cells, the cells were centrifuged at 300×g for 5 min, ultrasonically disrupted for about 1 min and then centrifuged at 12,000×g for 5 min and 1 mL of the supernatant was collected. To perform fluorescence measurement under alkaline conditions, a complex of histamine and o-phthaldehyde (Wako) was formed and partly extracted. […] The fluorescent intensity was measured using a fluorophotometer RF-1500 at an excitation wavelength of 360 nm and a fluorescent wavelength of 450 nm.

The test system of experiment [1] is FcεRI α- and γ-chains mRNA. The experiment in a line: FcεRI mRNA expression in human peripheral blood basophils (RT-PCR). Type of experiment: cell-based. To be noted: 25 µM of chrysin, 24 hours, vs DMSO. The protocol: Peripheral blood basophils (1×10^6 cells/mL) collected from the vein of a donor were incubated in a medium comprising 25 µM of chrysin or dimethyl sulfoxide (DMSO) for 24 hours. Then, RNA was extracted and the mRNA expression level of each of the FcεRI α- and γ-chains was examined by the RT-PCR method. Venous blood was collected from the forearm elbow of a donor. Then, peripheral blood lymphocytes were separated and purified using Lymphocyte Separation Medium (ICN Biomedical Inc.) and peripheral basophils were separated and purified by the density gradient centrifugation method using Percoll (Amersham Biosciences). The basophils (1×10^6 cells/mL) were incubated in 5% FCS-RPMI 1640 medium, to which 25 µM of chrysin or a solvent dimethylsulfoxide (DMSO) had been added, for 24 hours. RNA was extracted and the mRNA expression levels of FcεRI α- and γ-chains were examined by the RT-PCR method as in Example 1.

Another experiment deals with blood cytokine levels. As to the kind of experiment: Blood cytokine levels of OVA-sensitized mice after chrysin intake (Mouse Cytokine Array). Format: in vivo. The text has this:
Blood was collected as in Example 6 and 32 kinds of cytokines (6 Ckine, CTACK, Eotaxin, G-CSF, GM-CSF, IL-2, IL-3, Il-4, IL-5, Il-6, IL-9, IL-10, IL-12, IL-12p70, IL-13, IL-17, IFN-γ, KC, Leptin, MCP-1, MCP-5, MIP-1α, MIP-2, MIP-3β, RANTES, SCF, sTNFRI, TARC, TIMP-1, TNF-α, Tpo and VEGF) were detected using Ray Bio™ Mouse Cytokine Array (Ray Biotech, Inc.).

The subject of the next experiment is STAT6. As to the kind of experiment: Detection of phosphorylated STAT6 in IL-4-treated DND39 cells. The settings on record: IL-4 (100 U/ml), chrysin at various concentrations, 30 min. Type of experiment: cell-based, human. Here is the method:
DND39 cells were treated with IL-4 (100 U/ml) and chrysin at various concentrations and then lysed. Each cell lysate was subjected to immunoprecipitation using anti-STAT6 antibody. The immunoprecipitate was subjected to 8% SDS-PAGE and transferred onto a nitrocellulose membrane and phosphorylated STAT6 was detected. The density of DND39 cells was adjusted to 2×10^6 cells/mL and IL-4 (100 U/mL) and chrysin at each concentration were added thereto. Then, the cells were lysed by treating for 30 min. The cell lysate was subjected to immunoprecipitation using anti-STAT6 antibody. The immunoprecipitate was subjected to 8% SDS-PAGE and blotted onto a nitrocellulose membrane. Then phosphorylated STAT6 was detected using anti-tyrosine phosphorylation antibody (PY20).

As for `O=c1cc(-c2ccccc2)oc2cc(O)cc(O)c12` [Chrysin, 5,7-dihydroxyflavone], in the experiment with KU812 cells, the “histamine release induced by A23187” value is “significantly lowered”. In experiment [1], the “FcεRI α-chain mRNA expression level” value is given as “strongly lowered” and the “FcεRI γ-chain mRNA expression level” value was “lowered”. In addition, in the experiment on blood cytokine levels (in words), the “IL-4 level after taking chrysin” value is reported as “lower than the detection limit”; the “blood levels of G-CSF, GM-CSF, leptin and TNF-α” value was “tendency toward increase”; the “cytokine levels of 26 of the 32 kinds of cytokines” value is listed as “no change”. In the experiment on blood cytokine levels (non-intake group = 1), the “G-CSF blood level, relative value” is given as 2.43; the “GM-CSF blood level, relative value” was found to be 1.68; the “IL-4 blood level, relative value” amounted to 0; the “Leptin blood level, relative value” is listed as 1.25. Further, in the experiment with blood cytokine levels (non-intake group = 1), the “MCP-1 blood level, relative value” turned out to be 0.49 and the “TNF-α blood level, relative value” is reported as 2.17. In addition, the “phosphorylation of STAT6” value in the experiment on STAT6 was “suppressed”.
